Paper PMC12842892, “Truncated Equinin B Variants Reveal the Sequence Determinants of Antimicrobial Selectivity” (Marine Drugs, 2026)
Values after ≈ are worked out from the molar mass of the structure shown. Read-outs that look alike come from different tables or passages of the source. Where a SMILES comes first, the peptide text is derived from it. Where no end group is shown, it is not given here.

Experiments:
[1] = test system: Staphylococcus epidermidis DSM 20044; type: cell-based
Experimental: (§1) For these studies we used reference strains Escherichia coli ATCC25922, Bacillus subtilis 168c, Staphylococcus epidermidis DSM 20044 (DSMZ Gmbh, Brauschweig, Germany) and Enterococcus hirae DSM 3320 (DSMZ Gmbh, Germany). Bacterial cells were inoculated into Mueller–Hinton Broth II (MHB II; Sigma-Aldrich, Steinheim, Germany) and grown to the mid-logarithmic phase, washed in sodium buffered saline (PBS, 137 mM NaCl, 2.7 mM KCl, 10 mM Na2HPO4, and 2 mM KH2PO4, pH 7.4). The culture was adjusted to ~1 × 10^6 CFU/mL and dispensed into 96-well microtiter plates. Peptides were tested in two-fold serial dilutions across a concentration range of 0.4–100 µM, each concentration assayed in duplicate. Growth control wells (bacteria + medium, no peptide) and sterility control wells (medium only) were included. In parallel, the inoculum density and purity were verified by plating serial dilutions of the bacterial culture on MHB agar. After incubation at 37 °C for 20 h under static conditions, bacterial growth was quantified by measuring optical density at 620 nm (OD 620). […] The experiment was repeated in three independent biological replicates.

[2] = test system: Escherichia coli ATCC25922; type: cell-based; conditions: E. coli ATCC25922; cation-adjusted MHB II; ~1 × 10^6 CFU/mL; two-fold dilutions; 37 °C, 20 h; OD 620; three independent replicates, duplicates
Experimental: as §1

[3] = test system: Gram-positive and Gram-negative bacteria; conditions: cited from earlier work
Excerpt: Even though the discovery of antibiotics revolutionized medicine, their inappropriate use has enabled the spread of resistant bacteria and rendered commercially available antibiotics ineffective. Antibiotic resistance (AR) is one of the greatest threats, and the development of new molecules with antibacterial activity has become a global priority. Antimicrobial peptides (AMPs), naturally occurring defense molecules found across many species, represent a powerful alternative antibacterial strategy against antibiotic-resistant pathogens. As part of the innate immune response, ...

E. hirae = experiment: Membrane permeability assay (propidium iodide uptake), E. hirae; type: cell-based, Enterococcus hirae; conditions: 1 × 10^7 cells/mL in PBS; PI 2.5 µg/mL; 37 °C, 120 min
Experimental: (§2) Bacterial membrane permeabilization was evaluated using propidium iodide (PI) uptake. PI is a membrane-impermeable dye: it cannot cross intact bacterial cytoplasmic membranes, but when the membrane integrity is compromised (for example, via peptide-mediated permeabilization), PI enters the cell, intercalates into nucleic acids (DNA and RNA) and fluorescence increases markedly. B. subtilis, E. hirae and S. epidermidis cells were grown to mid-logarithmic phase, harvested by centrifugation, washed once with PBS and diluted to a concentration of 1 × 10^7 cells/mL using PBS instead of growth medium. […] Fluorescence (excitation 535 nm, emission 617 nm) was monitored every 2 min for 120 min at 37 °C using a microplate reader (GloMax®, Promega, Madison, WI, USA). The time-course fluorescence curves were recorded for each peptide concentration (in duplicate for each time point, and the entire experiment was repeated three independent times). From each time-course fluorescence curve (for a given peptide concentration), a constant time-window (for example minutes 10 to 20) was selected where the fluorescence signal was stable or in the linear uptake phase. The fluorescence values within that window were averaged to provide a representative fluorescence uptake value for that peptide concentration. […]

B. subtilis = experiment: Membrane permeability assay (propidium iodide uptake), B. subtilis; type: cell-based, Bacillus subtilis; conditions: 1 × 10^7 cells/mL in PBS; PI 2.5 µg/mL; up to 400 µM; 37 °C, 120 min; fluorescence 535/617 nm; three independent experiments in duplicates
Experimental: as §2

S. epidermidis = experiment: Membrane permeability assay (propidium iodide uptake), S. epidermidis; type: cell-based, Staphylococcus epidermidis; conditions: 1 × 10^7 cells/mL in PBS; PI 2.5 µg/mL; 37 °C, 120 min
Experimental: as §2

Compound: CC[C@H](C)[C@H](NC(=O)[C@H](CS)NC(=O)[C@@H](N)CCCNC(=N)N)C(=O)N[C@@H](CCCNC(=N)N)C(=O)N[C@@H](CCCNC(=N)N)C(=O)N[C@@H](CS)C(=O)N[C@@H](Cc1ccccc1)C(=O)NCC(=O)N[C@@H](Cc1ccc(O)cc1)C(=O)N[C@@H](CS)C(=O)N[C@@H](CC(C)C)C(=O)O [EB3, Arg-Cys-Ile-Arg-Arg-Cys-Phe-Gly-Tyr-Cys-Leu] (H-RCIRRCFGYCL-OH)
- MIC against S. epidermidis ([1]; DSM 20044, 20 h): 25 µM (≈ 34.7 µg/mL)

Compound: RRIRRRFGYRL [EB3-C, Arg-Arg-Ile-Arg-Arg-Arg-Phe-Gly-Tyr-Arg-Leu]
- MIC90, Staphylococcus epidermidis ([1]; DSM 20044, 20 h): 25 to 50 µg/mL

Compound: RRIRRRGYRL-OH [EB3a-C, Arg-Arg-Ile-Arg-Arg-Arg-Gly-Tyr-Arg-Leu]
- MIC90, Escherichia coli [2]: >100 µg/mL
- antimicrobial activity against S. epidermidis, in words ([1]; MIC assay, up to 100 µM): abolished activity
- MIC90, Staphylococcus epidermidis ([1]; S. epidermidis DSM 20044, cation-adjusted MHB II, ~1 × 10^6 CFU/mL, two-fold dilutions, 37 °C, 20 h, OD 620, three independent replicates, duplicates): >100 µg/mL

Compound: GQCQRKCLGHCSKKCPKHPQCRKRCIRRCFGYCL [Equinin B, 34-residue marine antimicrobial peptide isolated from the tentacle of Actinia equina]
- bactericidal concentrations [3]: 0.25 mg/mL
- minimum inhibitory concentrations (MICs) [3]: 1000 µg/mL

Compound: LL-37 (LLGDFFRKSKEKIGKEFKRIVQRIKDFLRNLVPRTES; Antibacterial peptide LL-37; UniProt P49913 134-170, looked up)
- membrane permeabilization of E. hirae (PI uptake), in words (E. hirae): unable to permeabilize
- membrane permeabilization of B. subtilis (PI uptake), in words (B. subtilis): extensive membrane permeabilization
- membrane permeabilization of S. epidermidis (PI uptake), in words (S. epidermidis): unable to permeabilize
